Laboratory results published in patent US20250057802A1, “BROAD-SPECTRUM ANTIVIRAL DRUGS” (FRAUNHOFER-GESELLSCHAFT ZUR FÖRDERUNG DER ANGEWANDTEN …, priority 2021, published 2025).

Legend:
[1] = test system: HEp-2 cells; test: in vitro cytotoxicity analysis (CellTiter-Glo Luminescent Cell Viability Assay); format: cell-based, human; parameters: unit not given here; conditions: without RSV-infection, 48 h post-treatment
Protocol: FIG. 1A, FIG. 2A, FIG. 3A, FIG. 4A, FIG. 5A, and FIG. 6A show dose-response curves for identified inhibitors against RSV. RSV was incubated with increasing concentrations of compounds for 10 min at 37° C. before the compound-virus mixtures were added to human epithelial cells (HEp-2). 2 dpi, infection rates were measured by counting infected cells. Vehicle-treated cells were set as the reference at 100% and used to normalize the data. Shown values represent mean±SD (n=3). The IC50 was determined by fitting the data to a dose-response curve using nonlinear regression analysis (GraphPad Prism, version 6.02). FIG. 1B, FIG. 2B, FIG. 3B, FIG. 4B, FIG. 5B, and FIG. 6B show dose-response curves for identified inhibitors (the same as identified at the top of the respective figures) in in vitro cytotoxicity analysis. HEp-2 cells were treated with increasing concentration of compounds without RSV-infection to assess potential cytotoxicity of the compounds. 48 h post-treatment cells were analyzed using CellTiter-Glo® Luminescent Cell Viability Assay (Promega) to determine cell viability rates. Vehicle-treated cells were set as the reference at 100% of viability and used to normalize the data. Shown values represent mean+SD (n=3).

[2] = test system: SARS-CoV-2; test: SARS-CoV-2 viral inhibition assay on Vero E6 cells; format: cell-based; conditions: Severe acute respiratory syndrome coronavirus 2, Vero C1008, virus incubated with compound 10 min at 37° C., 27 hours post-infection
[3] = test system: RSV; test: in vitro RSV inhibitory assay (virus pre-incubated with compound, HEp-2 cells, infected cells counted); format: cell-based, Human orthopneumovirus (RSV); conditions: human respiratory syncytial virus, 10 min; RSV incubated with compound 10 min at 37° C., added to HEp-2 cells, 2 dpi
[4] = stability in solution; format: physicochemical; conditions: 500 μM in DMSO/PBS (5:95 v/v); room temperature or 37° C.; versus 4,5-DCQA (reference)

Question: With `O=C(/C=C/c1ccc(O)c(O)c1)O[C@@H]1[C@H](O)C[C@@](O)(C(=O)O)C[C@H]1OC(=O)/C=C/c1ccc(O)c(O)c1` [4,5-DCQA, reference compound] as the molecule, how does the “Cytotoxic concentration on HEp-2 cells” value [1] read?
Answer: Its value is greater than 80000.

Question: And the IC50 [2]?
Answer: Its IC50 is 218 nM.

Question: What about the IC50 [3] of the same molecule?
Answer: Its IC50 is 1090 nM.

Question: With `O=C(OCCCOC(=O)c1cc(O)c(O)c(O)c1)c1cc(O)c(O)c(O)c1` [Compound 1, 3-(3,4,5-trihydroxybenzoyl)oxypropyl 3,4,5-trihydroxybenzoate] as the molecule, how does the “Cytotoxic concentration on HEp-2 cells” value [1] read?
Answer: Its value is 72737.

Question: And the IC50 [3]?
Answer: Its IC50 is 129 nM.

Question: What does the source list for `O=C(OCCCCCOC(=O)c1cc(O)c(O)c(O)c1)c1cc(O)c(O)c(O)c1` [Compound 2, 5-(3,4,5-trihydroxybenzoyl)oxypentyl 3,4,5-trihydroxybenzoate]?
Answer: Cytotoxic concentration on HEp-2 cells [1]: >80000; IC50 [3]: 4960 nM

Question: Which results are given for `O=C(OCCCCCCCCOC(=O)c1cc(O)c(O)c(O)c1)c1cc(O)c(O)c(O)c1` [Compound 3, 8-(3,4,5-trihydroxybenzoyl)oxyoctyl 3,4,5-trihydroxybenzoate]?
Answer: Cytotoxic concentration on HEp-2 cells [1]: 9197; IC50 [3]: 145 nM

Question: Which “Cytotoxic concentration on HEp-2 cells” value [1] does the source give for `CC(C)(COC(=O)c1cc(O)c(O)c(O)c1)COC(=O)c1cc(O)c(O)c(O)c1` [Compound 4, [2,2-dimethyl-3-(3,4,5-trihydroxybenzoyl)oxy-propyl]3,4,5-trihydroxybenzoate] here?
Answer: The value was 63163.

Question: What about the IC50 [3] of the same molecule?
Answer: The IC50 was 162 nM.

Question: What does the source list for `O=C(OCCOCCOC(=O)c1cc(O)c(O)c(O)c1)c1cc(O)c(O)c(O)c1` [Compound 5, 2-[2-(3,4,5-trihydroxybenzoyl)oxyethoxy]ethyl 3,4,5-trihydroxybenzoate]?
Answer: Cytotoxic concentration on HEp-2 cells [1]: 638066; IC50 [3]: 9330 nM

Question: Which “Cytotoxic concentration on HEp-2 cells” value [1] does the source give for `O=C(O[C@@H]1CCC[C@H](OC(=O)c2cc(O)c(O)c(O)c2)C1)c1cc(O)c(O)c(O)c1` [Compound 6, [(1R,3S)-3-(3,4,5-trihydroxybenzoyl)oxycyclohexyl]3,4,5-trihydroxybenzoate] here?
Answer: Its value is 61709.

Question: And the IC50 [3]?
Answer: The IC50 was 165 nM.

Question: Which “Cytotoxic concentration on HEp-2 cells” value [1] does the source give for `O=C(OCC(O)COC(=O)c1cc(O)c(O)c(O)c1)c1cc(O)c(O)c(O)c1` [Compound 7, [2-hydroxy-3-(3,4,5-trihydroxybenzoyl)oxy-propyl]3,4,5-trihydroxybenzoate] here?
Answer: Its value is greater than 80000.

Question: What about the IC50 [3] of the same molecule?
Answer: The IC50 was 339 nM.

Question: What does the source list for `NC(COC(=O)c1cc(O)c(O)c(O)c1)COC(=O)c1cc(O)c(O)c(O)c1` [Compound 8, [2-amino-3-(3,4,5-trihydroxybenzoyl)oxy-propyl]3,4,5-trihydroxybenzoate]?
Answer: Cytotoxic concentration on HEp-2 cells [1]: 66234; IC50 [3]: 87.7 nM

Question: With `O=C(OCC(COC(=O)c1cc(O)c(O)c(O)c1)OC(=O)c1cc(O)c(O)c(O)c1)c1cc(O)c(O)c(O)c1` [Compound 9, 2,3-bis[(3,4,5-trihydroxybenzoyl)oxy]propyl 3,4,5-trihydroxybenzoate] as the molecule, how does the “Cytotoxic concentration on HEp-2 cells” value [1] read?
Answer: The value was 49099.5.

Question: What about the IC50 [3] of the same molecule?
Answer: The IC50 was 55.5 nM.

Question: With `O=C(OCC(COC(=O)c1cc(O)c(O)c(O)c1)COC(=O)c1cc(O)c(O)c(O)c1)c1cc(O)c(O)c(O)c1` [Compound 10, [3-(3,4,5-trihydroxybenzoyl)oxy-2-[(3,4,5-trihydroxybenzoyl)oxymethyl]propyl]3,4,5-trihydroxybenzoate] as the molecule, how does the “Cytotoxic concentration on HEp-2 cells” value [1] read?
Answer: The value was 75145.

Question: And the IC50 [3]?
Answer: Its IC50 is 47.2 nM.

Question: With `CC(COC(=O)c1cc(O)c(O)c(O)c1)(COC(=O)c1cc(O)c(O)c(O)c1)COC(=O)c1cc(O)c(O)c(O)c1` [Compound 11, [2-methyl-3-(3,4,5-trihydroxybenzoyl)oxy-2-[(3,4,5-trihydroxybenzoyl)oxymethyl]-propyl]3,4,5-trihydroxybenzoate] as the molecule, how does the “Cytotoxic concentration on HEp-2 cells” value [1] read?
Answer: Its value is 47303.

Question: And the IC50 [3]?
Answer: The IC50 was 36.7 nM.

Question: For `CC(COC(=O)c1ccccc1)(COC(=O)c1cc(O)c(O)c(O)c1)COC(=O)c1cc(O)c(O)c(O)c1` [Compound 12, [2-(benzoyloxymethyl)-2-methyl-3-(3,4,5-trihydroxybenzoyl)oxy-propyl]3,4,5-trihydroxybenzoate], which “Cytotoxic concentration on HEp-2 cells” value [1] is on record?
Answer: The value was 34098.5.

Question: What about the IC50 [3] of the same molecule?
Answer: Its IC50 is 105 nM.

Question: Which “Cytotoxic concentration on HEp-2 cells” value [1] does the source give for `CC(COC(=O)c1ccccc1)(COC(=O)c1ccccc1)COC(=O)c1cc(O)c(O)c(O)c1` [Compound 13, [3-benzoyloxy-2-(benzoyloxymethyl)-2-methyl-propyl]3,4,5-trihydroxybenzoate] here?
Answer: The value was 13042.

Question: And the IC50 [3]?
Answer: Its IC50 is 480 nM.

Question: What does the source list for `O=C(NCCCNC(=O)c1cc(O)c(O)c(O)c1)c1cc(O)c(O)c(O)c1` [Compound 14, 3,4,5-trihydroxy-N-[3-[(3,4,5-trihydroxybenzoyl)amino]propyl]benzamide]?
Answer: Cytotoxic concentration on HEp-2 cells [1]: 15677; IC50 [3]: 367 nM

Question: Which results are given for `O=C(NCCCCCNC(=O)c1cc(O)c(O)c(O)c1)c1cc(O)c(O)c(O)c1` [Compound 15, 3,4,5-trihydroxy-N-[5-[(3,4,5-trihydroxybenzoyl)amino]pentyl]benzamide]?
Answer: Cytotoxic concentration on HEp-2 cells [1]: 45401; IC50 [3]: 408 nM

Question: Which “Cytotoxic concentration on HEp-2 cells” value [1] does the source give for `O=C(NCCCCCCCCCCNC(=O)c1cc(O)c(O)c(O)c1)c1cc(O)c(O)c(O)c1` [Compound 16, 3,4,5-trihydroxy-N-[10-[(3,4,5-trihydroxybenzoyl)amino]decyl]benzamide] here?
Answer: The value was greater than 80000.

Question: What about the IC50 [3] of the same molecule?
Answer: Its IC50 is 767 nM.

Question: With `O=C(NCCN(CCNC(=O)c1cc(O)c(O)c(O)c1)C(=O)c1cc(O)c(O)c(O)c1)c1cc(O)c(O)c(O)c1` [Compound 17, 3,4,5-trihydroxy-N-[2-[(3,4,5-trihydroxybenzoyl)-[2-[(3,4,5-trihydroxybenzoyl)-amino]-ethyl]amino]ethyl]benzamide] as the molecule, how does the “Cytotoxic concentration on HEp-2 cells” value [1] read?
Answer: The value was 36216.

Question: What about the IC50 [3] of the same molecule?
Answer: Its IC50 is 155 nM.

Question: For `CC(CNC(=O)c1cc(O)c(O)c(O)c1)(CNC(=O)c1cc(O)c(O)c(O)c1)CNC(=O)c1cc(O)c(O)c(O)c1` [Compound 18, 3,4,5-trihydroxy-N-[2-methyl-3-[(3,4,5-trihydroxybenzoyl)amino]-2-[[(3,4,5-trihydroxy-benzoyl)amino]methyl]propyl]benzamide], which “Cytotoxic concentration on HEp-2 cells” value [1] is on record?
Answer: Its value is greater than 80000.

Question: And the IC50 [3]?
Answer: Its IC50 is 59.5 nM.

Question: For `CC(CNC(=O)c1ccc(O)cc1)(CNC(=O)c1ccc(O)cc1)CNC(=O)c1ccc(O)cc1` [Compound 19, 4-hydroxy-N-[3-[(4-hydroxybenzoyl)amino]-2-[[(4-hydroxybenzoyl)amino]methyl]-2-methyl-propyl]benzamide], which “Cytotoxic concentration on HEp-2 cells” value [1] is on record?
Answer: The value was greater than 80000.

Question: For `CC(CNC(=O)c1cccc(O)c1)(CNC(=O)c1cccc(O)c1)CNC(=O)c1cccc(O)c1` [Compound 20, 3-hydroxy-N-[3-[(3-hydroxybenzoyl)amino]-2-[[(3-hydroxybenzoyl)amino]methyl]-2-methyl-propyl]benzamide], which “Cytotoxic concentration on HEp-2 cells” value [1] is on record?
Answer: Its value is 76260.

Question: For `CC(CNC(=O)c1ccc2c(c1)OCO2)(CNC(=O)c1ccc2c(c1)OCO2)CNC(=O)c1ccc2c(c1)OCO2` [Compound 21, N-[3-(1,3-benzodioxole-5-carbonylamino)-2-[(1,3-benzodioxole-5-carbonylamino)-methyl]-2-methyl-propyl]-1,3-benzodioxole-5-carboxamide], which “Cytotoxic concentration on HEp-2 cells” value [1] is on record?
Answer: Its value is greater than 80000.

Question: With `CC(CNC(=O)c1ccc(O)cc1O)(CNC(=O)c1ccc(O)cc1O)CNC(=O)c1ccc(O)cc1O` [Compound 22, N-[3-[(2,4-dihydroxybenzoyl)amino]-2-[[(2,4-dihydroxybenzoyl)amino]methyl]-2-methyl-propyl]-2,4-dihydroxy-benzamide] as the molecule, how does the “Cytotoxic concentration on HEp-2 cells” value [1] read?
Answer: Its value is 17473.

Question: And the IC50 [2]?
Answer: The IC50 was 75.1 nM.

Question: Which results are given for `CC(CNC(=O)c1ccc(O)c(O)c1)(CNC(=O)c1ccc(O)c(O)c1)CNC(=O)c1ccc(O)c(O)c1` [Compound 23, N-[3-[(3,4-dihydroxybenzoyl)amino]-2-[[(3,4-dihydroxybenzoyl)amino]methyl]-2-methyl-propyl]-3,4-dihydroxy-benzamide]?
Answer: Cytotoxic concentration on HEp-2 cells [1]: >80000; IC50 [2]: 26 nM; IC50 [3]: 35.7 nM; stability in solution [4]: improved stability

Question: Which “Cytotoxic concentration on HEp-2 cells” value [1] does the source give for `CC(CNC(=O)c1cccc(O)c1O)(CNC(=O)c1cccc(O)c1O)CNC(=O)c1cccc(O)c1O` [Compound 24, N-[3-[(2,3-dihydroxybenzoyl)amino]-2-[[(2,3-dihydroxybenzoyl)amino]methyl]-2-methyl-propyl]-2,3-dihydroxy-benzamide] here?
Answer: Its value is 5822.5.
